# Data published in PubChem BioAssay (NCI).
# “And” between values parts separate entries of the source, which are not always exact repeats. Equal values may be shown once.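 Method: 48-hour compound exposure of cells in 96-well plates, five concentrations, linear interpolation of endpoints. Abbreviation: GI50, concentration required for 50% inhibition of growth. TGI marks complete inhibition of growth.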
# Legend:
# Assay in all cases: NCI tumour cell line growth inhibition, 48 h
# ACHN renal = test system: ACHN renal
# CAKI-1 renal = test system: CAKI-1 renal
# HCT-15 colon = test system: HCT-15 colon
# HOP-62 NSCLC = test system: HOP-62 NSCLC
# KM12 colon = test system: KM12 colon
# MCF7 breast = test system: MCF7 breast
# MOLT-4 leukemia = test system: MOLT-4 leukemia
# PC-3 prostate = test system: PC-3 prostate
# RPMI-8226 leukemia = test system: RPMI-8226 leukemia
# SNB-75 CNS = test system: SNB-75 CNS
SMILES,GI50 (ACHN renal),TGI (ACHN renal),GI50 (CAKI-1 renal),TGI (CAKI-1 renal),GI50 (HCT-15 colon),TGI (HCT-15 colon),GI50 (HOP-62 NSCLC),TGI (HOP-62 NSCLC),GI50 (KM12 colon),TGI (KM12 colon),GI50 (MCF7 breast),TGI (MCF7 breast),GI50 (MOLT-4 leukemia),TGI (MOLT-4 leukemia),GI50 (PC-3 prostate),TGI (PC-3 prostate),GI50 (RPMI-8226 leukemia),TGI (RPMI-8226 leukemia),GI50 (SNB-75 CNS),TGI (SNB-75 CNS)
N#Cc1c(NC(=O)c2ccc(F)cc2)sc2c1CCCC2,> 25 µM,> 25 µM,> 25 µM,> 25 µM,> 25 µM,> 25 µM,> 25 µM,> 25 µM,> 25 µM,> 25 µM,> 25 µM,> 25 µM,> 25 µM,> 25 µM,> 25 µM,> 25 µM,> 25 µM,> 25 µM,> 25 µM,> 25 µM
COc1c(/C=C/C=O)cc2c(c1OC)OCO2,,> 100 µM,,29.1 µM,,40.2 µM,,73.7 µM,,29.4 µM,,> 100 µM,,49.6 µM,,> 100 µM,,43.4 µM,,> 100 µM
N#CC(C#N)=C1CCOc2ccc(F)cc21,13.3 µM,26 µM,15.4 µM,51.9 µM,15.5 µM,30.3 µM,13.2 µM,25.9 µM,49.7 µM,> 100 µM,11.3 µM,23.3 µM,16.2 µM,29.7 µM,13.9 µM,26.8 µM,17.4 µM,38.4 µM,22.7 µM,81.9 µM
COc1cc(/C=C2\CCC/C(=C\c3ccc(O)c(OC)c3)C2=O)ccc1O,1.82 µM,4.34 µM and 3.33 µM,1.88 µM,8.46 µM and 5.99 µM,1.49 µM,8.44 µM and 3.36 µM,1.79 µM,8.32 µM and 3.95 µM,1.25 µM,5.83 µM and 2.62 µM,2.1 µM,40.5 µM and 9.81 µM,2.18 µM,25.6 µM and 15.5 µM,3.14 µM,23.7 µM and 13.6 µM,0.397 µM,10.8 µM and 3.59 µM,3.64 µM and 1.99 µM,12.7 µM and 13.7 µM
COc1ccc(C2CC(c3ccc(Nc4ccnc5cc(Cl)ccc45)cc3)=NN2C=O)cc1 (stereo not given),7.02 µM,> 100 µM,> 100 µM,> 100 µM,2.97 µM,> 100 µM,43.7 µM,> 100 µM,16.5 µM,> 100 µM,8.78 µM,> 100 µM,2.55 µM,16.7 µM,9.43 µM,> 100 µM,2.71 µM,48.6 µM,> 100 µM,> 100 µM
COC1=C(C)C(=O)c2c(c(CCCl)c3n2CCC3OC(C)=O)C1=O (stereo not given),0.142 µM,0.417 µM,0.35 µM,2.15 µM,0.155 µM,2.35 µM,0.122 µM,0.793 µM,0.642 µM,3.05 µM,0.071 µM,1.85 µM,4.11 µM,> 100 µM,0.749 µM,14.3 µM,2.84 µM,27.3 µM,0.141 µM,0.376 µM
C/C(=N\OCC(O)CNCCSCc1ccccc1)c1ccccc1Cl (stereo not given),,37.8 µM,,34.6 µM,,41.1 µM,,38.8 µM,,40.2 µM,,44.6 µM,,> 100 µM,,36.2 µM,,43.4 µM,,39.9 µM
Clc1cc(Cl)c(OCCCCCCN2CCNCC2)c(Cl)c1,2.44 µM,6.11 µM,2.09 µM,6.39 µM,1.82 µM,4.09 µM,10.6 µM,26 µM,1.8 µM,3.6 µM,1.89 µM,4.2 µM,2.04 µM,4.88 µM,1.8 µM,4.03 µM,2.11 µM,4.62 µM,2.64 µM,11.7 µM
Cc1ccc(C=C2C(Cl)=C(Cl)C(Cl)=C2Cl)cc1,0.7 µM,1.94 µM,0.503 µM,2.16 µM,1.33 µM,4.88 µM,2.13 µM,4.44 µM,1.15 µM,2.56 µM,0.39 µM,2.37 µM,0.186 µM,0.493 µM,0.743 µM,6.3 µM,0.224 µM,0.653 µM,1.16 µM,2.44 µM
COC(=O)[C@]12CC[C@@H](C)[C@H](C)[C@@H]1C1=CC[C@@H]3[C@@]4(C)C[C@@H](OC(=O)/C=C/c5ccccc5)[C@H](O)[C@@](C)(CO)[C@@H]4[C@H](O)C[C@@]3(C)[C@]1(C)CC2,3.11 µM,11.4 µM,3.27 µM,11.9 µM,1.93 µM,4.02 µM,1.91 µM,5.43 µM,2.05 µM,5.36 µM,3.12 µM,11.5 µM,2.27 µM,7.31 µM,2.55 µM,8.93 µM,2.54 µM,7.86 µM,2.08 µM,12.9 µM
CCCCCCn1c(SC)nc(COC(=O)NC)c1COC(=O)NC,,30.5 µM,,29.1 µM,,> 100 µM,,37.1 µM,,32.6 µM,,38 µM,,53.8 µM,,31.8 µM,,67.7 µM,,27.8 µM
Cn1cc(C2=C(c3cn(-c4ccccc4)c4ccccc34)C(=O)NC2=O)c2ccccc21,17.3 µM,> 25 µM,16.4 µM,> 25 µM,10.7 µM,> 25 µM,> 25 µM,> 25 µM,8.12 µM,> 25 µM,9.3 µM,> 25 µM,9.59 µM,> 25 µM,9.86 µM,> 25 µM,12.1 µM,> 25 µM,5.76 µM,> 25 µM
CC1(C)N=C(N)N=C(N)N1c1ccc(OCCCNC(=O)Nc2cccc(S(=O)(=O)F)c2)c(Cl)c1,15.7 µM,> 100 µM,30.3 µM,> 100 µM,29.2 µM,> 100 µM,6.04 µM,> 100 µM,4.53 µM,> 100 µM,3.82 µM,> 100 µM,3.26 µM,> 100 µM,1.23 µM,> 100 µM,41.4 µM,> 100 µM,2.73 µM,> 100 µM
NC(=S)N/N=C1\c2ccccc2-c2c(F)c(F)c(F)c(F)c21,2.11 µM,4.38 µM,2.34 µM,7.16 µM,2.05 µM,4.61 µM,2.71 µM,6.72 µM,5.88 µM,16.3 µM,2.39 µM,14.3 µM,1.8 µM,5.31 µM,10.1 µM,28.3 µM,3.92 µM,> 55.9 µM,6.36 µM,21.6 µM
